Test results published in patent US12590164B2, “Productivity-enhanced antibody and method for producing same” (Yonsei University BioHealth Technology Holdings, Inc., priority 2018, dated 2026).

Legend:
Ramos cells [1] = experiment: Binding affinity of rituximab to Ramos cells by flow cytometry; conditions: 0.1-10 μg/ml, 4° C. 30 minutes, FACS; compared to the rituximab obtained without any treatment
Protocol: Then, incubation was performed at 4° C. for 30 minutes. Washing with PBS was performed once, and then treatment with anti-human Ig Fc-specific FITC-conjugated secondary antibody (109-095-008, 1:200 dilution; Jackson Laboratories), which was diluted […] with 50 μl PBS, was performed. Incubation was performed at 4° C. for 30 minutes. […] Analysis was performed with the FlowJo software (FIG. 14).

Ramos cells [2] = experiment: Complement-dependent cytotoxicity with rabbit complement; assay type: cell-based; conditions: 0.1-10 ug/ml, rabbit complement 1:4, 2 hours; compared to the rituximab obtained without any treatment
Protocol: Complement-Dependent Cytotoxicity (complementary dependent cell death): Ramos cells were treated with 5 uM of calcein-AM in a serum-free RPMI, and then incubated at 37° C. for 30 minutes. The stained Ramos cells were dispensed in an amount of 1×10^5 cells/well.

CHO-K1 cells = experiment: Rituximab production by transduced CHO-K1 cells after addition of reagent (purified antibody amount, Western blotting of medium); assay type: cell-based, Chinese hamster; conditions: for production of the heavy and light chains of rituximab over time: medium at 24, 48, 72 hours
Protocol: Antibody Production: CHO-K1 cells were inoculated into a 12-well plate at 1×10^5 cells/well and then cultured. The next day, the culture medium having lentivirus-containing cells and a fresh culture medium were mixed at a ratio of 1:1, and treatment with this mixture was performed. Culture was performed for 24 hours. The culture medium was replaced with a new medium, and then treatment with puromycin and blasticidin at 10 μg/ml each was performed for selection. When 72 hours elapsed, the remaining cells were proliferated to obtain sufficient cells. For the cells thus obtained, the culture medium was replaced with a serum-free medium (EX-CELL CD CHO Serum-Free Medium for CHO Cells, Chemically Defined, Sigma, 14360C), and then treatment with Thiamet-G (Sigma Cat #SML0244) reagent at a concentration of 30 μM was performed. The cells were cultured in a CO2 incubator at 30° C. for 2 weeks. Then, the culture medium was collected and centrifuged at 1000 rcf for 3 minutes at 4° C. Only the supernatant was transferred separately into a clean tube, and the cells mixed with the supernatant were removed. The resultant was stored at 4° C.
Antibody Purification: the antibody-containing culture medium was treated with protein A agarose beads (Pierce Protein A Agarose, Therm Fisher Scientific, QE218104), and the reaction was allowed to proceed at 4° C. for 4 hours. The supernatant was removed by centrifugation, and washing with a washing buffer (0.1 M NaPO4, 0.15 M NaCl, pH 7.4) was performed five times. For the beads from which the supernatant was removed, elution was again performed 5 times with an elution buffer (0.2 M glycine, pH 3) in the same bead volume. […] Then, the total protein was quantified by the Bradford method.
To identify changes in protein amount of heavy and light chains of antibody caused by treatment with Thiamet-G, the following experiment was performed to check changes in antibody production over time after addition of Thiamet-G. The cell culture medium was collected when 24 hours, 48 hours, and 72 hours elapsed after addition of Thiamet-G at a concentration of 30 μM. […] The ECL solution was used to sensitize an x-ray film (FIG. 2), and production of the heavy and light chains at each time point was analyzed (FIG. 3).
During the antibody production process, the reagent OSMI-1 (Sigma #SML1621), which corresponds to an OGT inhibitor, at a concentration of 30 μM was added in place of Thiamet-G. Then, in the same manner as described above, the cell culture medium was collected when 24 hours, 48 hours, and 72 hours elapsed, and the production of the antibody and its heavy chain was analyzed through Western blotting (FIGS. 4-5). […]

[3] = test system: O-linked N-acetylglucosamine (O-GlcNAc) in rituximab; experiment: Degree of binding of O-GlcNAc in rituximab (RL2 Western blotting, metabolic labeling); assay type: cell-based
Protocol: Based on the total protein amount, the isolated rituximab was subjected to electrophoresis on acrylamide gel so that proteins were separated by size. Then, the proteins were transferred to a nitrocellulose membrane. Portions other than the proteins electrically transferred to the nitrocellulose membrane were blocked with TBS-T containing 5% non-fat milk and 0.1% Tween 20 at room temperature for 1 hour. Incubation with O-linked N-acetylglucosamine (O-GlcNAc)-specific antibody (RL2-HRP) was performed at room temperature for 1 hour, and then washing with TBS-T was performed three times for 10 minutes each. The ECL solution was used to sensitize an x-ray film (FIG. 6A).
The ECL solution was used to sensitize an x-ray film (FIG. 6B).
The cell line was cultured for 72 hours in a serum-free RPMI medium treated with Thiamet-G (TMG) at 50 μM, and then harvested. Then, a cell lysate was prepared. […] Then, Coomassie blue staining was performed. The results are illustrated in FIGS. 7A-7B. Here, however, as a control, Mabthera (Mab) (Roche) was used.
To further identify differences in degree of binding of O-GlcNAc in antibody, a comparison of O-GlcNAc binding amount using metabolic labeling wax performed. […] The cell line was treated with Thiamet-G at 50 μM and Ac4GlcNAz (azido sugar) at 50 μM and cultured for 4 days. […] O-GlcNAc in the rituximab was subjected to metabolic labeling.

[4] = test system: O-linked N-acetylgalactosamine (O-GalNAc) in rituximab; experiment: Degree of binding of O-GalNAc in rituximab (Jacalin lectin blotting, LC-MS/MS); assay type: cell-based
Protocol: The nitrocellulose membrane was blocked with PBS-T (Tween 0.5%) for 1 hour. Then, an O-GalNAc-binding lectin (biotinylated-Jacalin) was added thereto, and incubation was performed at room temperature for 1 hour. Washing with PBS-T was performed three times for 10 minutes each, and then incubation with streptavidin-HRP was performed at room temperature for 30 minutes. Washing with PBS-T was performed three times for 10 minutes each, and then the ECL solution was used to sensitize an x-ray film. […] Then, washing with TBS-T was performed three times for 10 minutes each. The ECL solution was used to sensitize an x-ray film (FIGS. 17A-17B).

[5] = test system: CHO cell line expressing rituximab; experiment: Antibody production after Thiamet-G, cell line expressing rituximab; assay type: cell-based, Chinese hamster; conditions: 50 μM, 30° C.
Protocol: (§1) The next day, treatment with Thiamet-G at 50 μM in 3 ml of CHO medium was performed, and culture was performed at 30° C. for 2 weeks. Then, the medium was harvested. The same volume of medium was subjected to electrophoresis so that proteins were separated by size, and then the proteins were transferred to a PVDF membrane. Portions other than the proteins electrically transferred to the membrane were blocked with TBS-T containing 5% non-fat milk and 0.1% Tween 20 at room temperature for 1 hour. […] The ECL solution was used to sensitize an x-ray film (FIG. 19), and changes in production depending on treatment with Thiamet-G were measured for each antibody (FIG. 20).
as §1, with “7 days.” for “2 weeks.”, “(FIGS. 22-23).” for “(FIG. 19), and changes in production depending on treatment with Thiamet-G were measured for each antibody (FIG. 20).”

[6] = test system: CHO cell line expressing nivolumab; experiment: Antibody production after Thiamet-G, cell line expressing nivolumab; assay type: cell-based, Chinese hamster; conditions: 50 μM, 30° C.
Protocol: as §1
as §1, with “7 days.” for “2 weeks.”, “(FIGS. 22-23).” for “(FIG. 19), and changes in production depending on treatment with Thiamet-G were measured for each antibody (FIG. 20).”

[7] = test system: CHO cell line expressing pembrolizumab; experiment: Antibody production after Thiamet-G, cell line expressing pembrolizumab; assay type: cell-based, Chinese hamster; conditions: 50 μM, 30° C.
Protocol: as §1
as §1, with “7 days.” for “2 weeks.”, “(FIGS. 22-23).” for “(FIG. 19), and changes in production depending on treatment with Thiamet-G were measured for each antibody (FIG. 20).”

Row | Compound | binding affinity (Ramos cells [1]) | complement-dependent cytotoxicity (Ramos cells [2]) | production of the heavy and light chains of rituximab over time (CHO-K1 cells; 30 μM, Western blotting) | production of rituximab depending on treatment concentration (CHO-K1 cells; 0, 30 or 50 μM for 72 hours, Western blotting) | production of the purified rituximab antibody, increase versus no treatment (CHO-K1 cells; 30 μM, 30° C., 2 weeks, FIG. 1) | O-GlcNAc in rituximab, metabolic labeling ([3]; 50 μM with Ac4GlcNAz 50 μM, 4 days, streptavidin-HRP) | O-GlcNAc in rituximab ([3]; 50 μM, 2 weeks at 30° C., RL2-HRP, reducing and non-reducing conditions) | degree of binding of O-GlcNAc in rituximab ([3]; rituximab of Example 1, RL2-HRP Western blotting, same amount of rituximab) | binding of O-GalNAc to light chain residues of rituximab ([4]; LC-MS/MS, untreated rituximab has O-GalNAc on 7 light chain residues) | O-GalNAc bound to rituximab ([4]; biotinylated-Jacalin lectin blotting, same amount of rituximab) | production of the light chain of rituximab ([5]; 2 weeks) | production of rituximab ([5]; 7 days) | production of the light chain of nivolumab ([6]; 2 weeks) | production of nivolumab ([6]; 7 days) | production of the light chain of pembrolizumab ([7]; 2 weeks) | production of pembrolizumab ([7]; 7 days)
1 | rituximab, which underwent O-linked glycosylation by treatment with Thiamet-G: rituximab (SEQ ID NO: 5 and 6) produced in CHO-K1 cells with Thiamet-G, O-GlcNAc bound to light chain serines 7, 12, 14, 181 | no difference | no difference |  |  |  |  |  |  |  |  |  |  |  |  |  | 
2 | COc1ccccc1[C@@H](NS(=O)(=O)c1ccc2[nH]c(=O)ccc2c1)C(=O)N(Cc1ccco1)Cc1cccs1 [OSMI-1] |  |  | extent of increase in production decreased as compared with the untreated negative control |  |  |  |  |  |  |  |  |  |  |  |  | 
3 | CCN=C1N[C@@H]2[C@@H](O)[C@H](O)[C@@H](CO)O[C@@H]2S1 [Thiamet-G] |  |  | remarkably increased over time | increased proportionally | about 2 times | increased | increased | increased | decreased in 5 out of the 7 residues | decreased | increased remarkably by two or more times | increased remarkably | increased remarkably by two or more times | increased remarkably | increased remarkably by two or more times | increased remarkably
